The record followed here is paper PMC10135567, “New Indole-3-Propionic Acid and 5-Methoxy-Indole Carboxylic Acid Derived Hydrazone Hybrids as Multifunctional Neuroprotectors” (Antioxidants, 2023).

Entries after “also recorded” stand apart in the source; their conditions may differ.

Data set [1] in a line: O-phenanthroline Fe(II) chelation test. Type of data set: physicochemical. The settings on record: 200 µM compound, FeCl2. The method, then:
The Fe (II)-chelating activity of the tested hydrazones was determined by the O-phenanthroline method. A total of 1 mL sample solutions of 50 mM PB pH 7 contained 0.2 mM O-phenanthroline and 0.05 mM FeCl2 and 0.2 mM hydrazone. In the controls, the tested compounds were omitted. Absorbance was measured at 515 nm via GENESYS 50 UV-VIS spectrophotometer after incubation for 5 min at 37 °C. The data for the sample activity were presented as a percentage of the control measurement. Absorbance spectra of all the samples, the control, and the measurement compositions containing the tested hydrazones and Fe(II) at the concentrations used in the samples were measured.
To explain the results of both systems of Fe(II)-induced oxidative damage, we studied the potency of the tested compounds to chelate-iron (Fe(II)). This was studied by spectrophotometric determination of free iron (Fe(II)) using the ortho-phenanthroline test, as 1,10-phenantroline reacts rapidly with Fe(II) ions in weakly acidic media, generating an orange–red complex (ferroin) with characteristic absorbance spectra (molar absorptivity 1.10.104 (α = 0.20) at ~max 512 nm and a molar ratio 3:1 (R: Fe(II))). The generated complex was stable, and the bound Fe(II) was resistant to oxidation. Lower absorbance of the reaction mixture indicated higher Fe^2+-chelating activity.

Another data set relates to bEnd3 monolayer. The data set is described as follows: Permeability assay, static BBB model of bEnd3 monolayer (streptavidin-HRP passage). It counts as cell-based, mouse. The following applies: 90 min. The method, then:
To evaluate the compounds’ effect on a BBB model, bEnd3 endothelial cells were seeded on polycarbon (PC) cell-culture inserts with 0.4 µm pore size (cat. no. 1CH3.1, BRAND GMBH + CO KG, Wertheim, Germany) and a density of 5.6 × 10^3 cells/insert. The inserts were placed in a 24-well plate containing 1 mL of cell-culture medium. […] On the second day of incubation, the cell-culture medium was refreshed. To ensure 100% confluence, the inserts were evaluated for medium leakage before the experiment. […] Following the incubation, the inserts were placed in a new 24-well plate containing 1 mL Phenol Red free–DMEM (cat. no. D1145, Sigma-Aldrich Co. LLC, St. Louis, MO, USA) without serum. In the upper chamber, a solution of streptavidin, conjugated with horse-radish peroxidase (HRP, cat. no. SA00001-0, Proteintech, Rosemont, Illinois, USA) (1:1000) in serum-free phenol red medium was added. The cells were further incubated for 5 min at 37 °C and 5% CO2, after which the inserts were removed. The remaining medium in the 24-well plate was collected and vortexed briefly, and 3 × 50 µL aliquots were transferred into a 96-well plate. A total of 50 µL TMB Signal+ substrate solution (BUF054A, Bio-Rad, Hercules, CA, USA) was added to each well and incubated for 5 min at 37 °C. The HRP converted the TMB to a blue-colored product. To stop the reaction, 50 µL of 0.2 N H2SO4 was added that caused the blue color to turn yellow. […] Each condition was tested at least twice.
To further explore the neuroprotective effect of the compounds, we tested their ability to influence the BBB and its permeability, utilizing a static BBB model with brain microvascular endothelial cell line bEnd3 [36], as it would be essential for the compounds to pass the BBB and protect the neuronal cells. In addition to their endothelial origin, the bEnd3 cells were strongly connected by specific proteins (ZO-1, claudin-5) forming tight junctions (TJs). This was crucial for preventing unregulated […] transport and sustaining the apical–basal polarity of the monolayer. Here, we determined any changes in the permeability of the BBB by imitating an endothelial barrier via a static BBB model of bEnd3 cells (Figure 11a,c,e). This allowed us to determine the possibility of drug passage. It should be noted, that even though drug passage was desirable, any irreversible modifications of the cell monolayer and the TJs were considered threatening. Therefore, in parallel to the permeability tests, the bEnd3 cells were stained for TJ-formation and ZO-1 distribution (Figure 11b,d,f).

Data set [2] is described as follows: MTT cell viability assay (cytotoxicity), SH-SY5Y. The following applies: human, SH-SY5Y neuroblastoma cells. The method, then: Neuroblastoma cell line SH-SY5Y (94030304) was acquired from the European Collection of Cell Cultures (ECACC, Salisbury, UK). Cells were cultured in a medium prepared with RPMI basic media supplemented with 10% heat-inactivated FBS (fetal bovine serum), 2 mM L-glutamine, 1% antibiotics (penicillin/streptomycin), and incubated at 37 °C in a humidified atmosphere containing 5% of CO2. The culture’s medium was replaced at a time interval of 2–3 days.
Cell viability was assessed via the mitochondrial reductase-dependent reaction of (3-(4,5-dimethylthiazol-2-yl)- 2,5-diphenyl tetrazolium bromide (MTT, cat. no. 475989, Calbiochem, Merck KGaA, Darmstadt, Germany). The SH-SY5Y and bEnd3 cell lines were seeded in 96-well plates at a density of 0.7 × 10^4 (bEnd3) or 2 × 10^4 (SH-SY5Y) cells/well and allowed to adhere for 24 h at 37 °C, 5% CO2. Then, the cells were incubated with the compounds (1–500 μM) for a preset time (24 h). For the solvent, the control cells were treated with DMSO corresponding to the highest concentration of DMSO in the samples (0.5% DMSO) in order to exclude its cytotoxic effect on the cells. For each concentration, a set of at least 6 wells were used. After incubation, the solution from each well was exchanged with fresh culture medium (100 µL/well), containing the MTT reagent (0.5 mg/mL) and incubated for 3 h at 37 °C in a humidified atmosphere and 5% CO2. The obtained formazan crystals were dissolved in 100 µL/well of 5% formic acid in propan-2-ol solution (or DMSO). The absorbance was measured at 570 nm via multiplate reader Tecan Infinite F200 PRO (Tecan Trading AG., Männedorf, Switzerland) or Synergy 2 (BioTek Instruments, Inc., Highland Park, Winooski, VT, USA).
Both the SH-SY5Y and bEnd3 cells were treated with the test compounds in a concentration range from 1 to 500 µM for 24 h.
In general terms: Tetrazolium dyes change colour on reduction, which living cells bring about.

A short description of data set [3]: Superoxide radical scavenging, xanthine/xanthine oxidase/NBT system. Type of data set: biochemical. The settings on record: for increase of absorbance ratio as compared to the controls: 100 µM; for decrease of NBT reduction as compared to the controls: 100 µM (highest tested concentration); for absorbance ratio (NBT reduction, % of control): 1, 10, 50 and 100 µM. The procedure:
The 1 mL cuvette for the control contained 1 mM xanthine, 20 µL xanthine oxidase (100 IU/L), and 0.04 mM NBT [43, 44]. In the sample compositions, the tested hydrazones at different concentrations were added. All measurement compositions were incubated at 37 °C, and the absorbance was determined spectrophotometrically at 560 nm via Shimadzu UV-1601 UV-vis spectrophotometer.
The potential capability of the investigated compounds to prevent the superoxide-anion radical-induced NBT reduction was investigated spectrophotometrically by xanthine-oxidase assay. The assay was carried out at the final concentration of the tested compounds, at 1, 10, 50, and 100 µM.

One may read the melting point as the temperature, or range, at which the solid turns liquid. As a reminder, the IC50 is the concentration that inhibits the measured activity by half. On to `COc1ccc2[nH]c(C(=O)NN=Cc3ccc(O)c(OC)c3)cc2c1` [Compound 5d, N′-(4-Hydroxy-3-methoxybenzylidene)-5-methoxy-1H-indole-2-carbohydrazide], for which the melting point was 261 °C. For the same compound, the “absorbance at 515 nm compared to the controls (Fe(II) chelation)” value in data set [1] was “statistically identical absorbance values at 515 nm, as compared to the controls”. Moreover, the “change of permeability of bEnd3 monolayer vs. control (in words)” value (“change” below) in the data set with bEnd3 monolayer (10 µM) is recorded as “decreased it”. Also, the IC50 at 24 h in data set [2] is 98.2 µM. Further, the “increase of absorbance ratio as compared to the controls” value (“increase of absorbance ratio” for short) in data set [3] is given as 23%.

Consider `COc1cc(C=NNC(=O)CCc2c[nH]c3ccccc23)ccc1O` [Compound 3d, N′-(4-Hydroxy-3-methoxybenzylidene)-3-(1H-indol-3-yl)propanehydrazide], for which the melting point fell in the range of 157 to 158 °C. The “absorbance at 515 nm compared to the controls (Fe(II) chelation)” value in data set [1] is given as “statistically identical absorbance values at 515 nm, as compared to the controls”. In the data set with bEnd3 monolayer (50 µM), the “change” value is given as “increased the permeability”. Moreover, the IC50 at 24 h in data set [2] came to 156 µM. Also, the “decrease of NBT reduction as compared to the controls” value (“decrease of NBT reduction” for short) in data set [3] is listed as “less than 15%”.

`COc1ccc2[nH]c(C(=O)NN=Cc3cc(OC)c(O)c(OC)c3)cc2c1` [Compound 5f, N′-(4-Hydroxy-3,5-dimethoxybenzylidene)-5-methoxy-1H-indole-2-carbohydrazide] had a melting point of 239 to 240 °C. Further, the “absorbance at 515 nm compared to the controls (Fe(II) chelation)” value in data set [1] was “statistically identical absorbance values at 515 nm, as compared to the controls”. In the data set with bEnd3 monolayer (10 µM), the “change” value is recorded as “decreased it”. Moreover, the IC50 at 24 h in data set [2] was determined as 287 µM. In addition, in data set [3], the “increase of absorbance ratio” value came to 8%.

Take “N′-(4-Hydroxy-2-methoxybenzylidene)-3-(1H-indol-3-yl)propanehydrazide [Compound 3e]”: the “absorbance at 515 nm compared to the controls (Fe(II) chelation)” value in data set [1] is recorded as “statistically significant changes; also recorded: much higher absorbance values than the controls”. Besides, the “change” value in the data set on bEnd3 monolayer (50 µM) is “increased the permeability”. Besides, in data set [3], the “absorbance ratio (NBT reduction, % of control)” value is “approximately 135%”.

As to `COc1ccc2[nH]c(C(=O)NN=Cc3ccc(O)c(O)c3)cc2c1` [Compound 5b, N′-(3,4-Dihydroxybenzylidene)-5-methoxy-1H-indole-2-carbohydrazide], the melting point lay in the range of 252 to 253 °C. In addition, the “absorbance at 515 nm compared to the controls (Fe(II) chelation)” value in data set [1] is recorded as “statistically identical absorbance values at 515 nm, as compared to the controls”. Also, the “change” value in the data set with bEnd3 monolayer (10 µM) was “passage through the BBB model was induced”. In the data set on bEnd3 monolayer (50 µM), the “change” value is “reduced the permeability”. The IC50 at 24 h in data set [2] came out at 111 µM. Moreover, the “NBT reduction decreased to” value in data set [3] (10 µM) turned out to be 20%.

Consider `COc1ccc2[nH]c(C(=O)NN=Cc3ccc(O)cc3O)cc2c1` [Compound 5c, N′-(2,4-Dihydroxybenzylidene)-5-methoxy-1H-indole-2-carbohydrazide], for which the “absorbance at 515 nm compared to the controls (Fe(II) chelation)” value in data set [1] is given as “statistically significant changes”. In addition, the “change” value in the data set on bEnd3 monolayer (50 µM) is reported as “reduced the permeability”. Moreover, the IC50 at 24 h in data set [2] stood at 73.9 µM. In data set [3], the “absorbance ratio (NBT reduction, % of control)” value is on record as “did not influence the estimated absorbance ratio at any of the tested concentrations”.

In turn, `COc1ccc2[nH]c(C(=O)NN=Cc3cccc(O)c3O)cc2c1` [Compound 5a, N′-(2,3-Dihydroxybenzylidene)-5-methoxy-1H-indole-2-carbohydrazide] registered a melting point of 262 to 263 °C. In addition, in data set [1], the “absorbance at 515 nm compared to the controls (Fe(II) chelation)” value is on record as “identical absorbance values, as compared to the controls”. In the data set on bEnd3 monolayer (10 µM), the “change” value is “passage through the BBB model was induced”. Also, the “change” value with bEnd3 monolayer (50 µM) was “reduced the permeability”. Further, the IC50 at 24 h in data set [2] came to 79.3 µM. Further, in data set [3], the “decrease of NBT reduction” value was “less than 15%”.

Take `COc1ccc2[nH]cc(CCNC(C)=O)c2c1` [Melatonin]: the “influence on the permeability of the monolayer (in words)” value in the data set on bEnd3 monolayer (10 or 50 µM) is listed as “did not influence the permeability”. For the same compound, in data set [2], the IC50 at 24 h was over 500 µM.

Consider `COc1ccc(C=NNC(=O)c2cc3cc(OC)ccc3[nH]2)c(O)c1` [Compound 5e, N′-(2-Hydroxy-4-methoxybenzylidene)-5-methoxy-1H-indole-2-carbohydrazide], for which the “absorbance at 515 nm compared to the controls (Fe(II) chelation)” value in data set [1] is “statistically significant changes; also recorded: much higher absorbance values than the controls”. Besides, the IC50 at 24 h in data set [2] worked out at 200 µM. In data set [3], the “increase of absorbance ratio” value amounted to 40%.

`COc1cc(C=NNC(=O)CCc2c[nH]c3ccccc23)cc(OC)c1O` [Compound 3f, N′-(4-Hydroxy-3,5-dimethoxybenzylidene)-3-(1H-indol-3-yl)propanehydrazide] had a melting point of 134 to 135 °C. Moreover, in data set [1], the “absorbance at 515 nm compared to the controls (Fe(II) chelation)” value is given as “statistically identical absorbance values at 515 nm, as compared to the controls”. In the data set with bEnd3 monolayer (10 µM), the “increase in the permeability of bEnd3 monolayer” value is recorded as 0.5 times. Further, the “change” value in the data set with bEnd3 monolayer (50 µM) is on record as “increased the permeability”. The IC50 at 24 h in data set [2] is over 500 µM. In addition, the “decrease of NBT reduction” value in data set [3] is reported as “less than 15%”.
